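Compound exposure: 48 hours, 5 concentrations, 96-well plates. Abbreviation: GI50, concentration required for 50% inhibition of growth. At the TGI there is no net growth.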

Holding throughout (assay): growth of human tumour cells (NCI), 48 h
Assay [1] deals with OVCAR-3 ovarian.
For assay [2], the system named is SK-MEL-2 melanoma.
In assay [3] the test system is SW-620 colon.
The subject of assay [4] is NCI-H522 lung.
Assay [5] concerns K-562 leukemia.
Assay [6] has as its system SN12C renal.
Assay [7] has as its system U251 CNS.
Assay [8] relates to CCRF-CEM leukemia.
The subject of assay [9] is HT29 colon.

On to `COCCOCOC(CCCCO)c1cc(C)c(O[Si](C)(C)C(C)(C)C)c(C)c1` (stereo not given), for which the TGI in [1] amounted to 19.2 µM; in assay [2], 21.9 µM; in [3] it was 21.1 µM; in [4], 6 µM; in assay [5], 16.3 µM; in assay [6], 8.73 µM. The TGI in assay [7] was 23.6 µM; in assay [8], 18.1 µM.
Turning to `CCCC/C=C/C=C/C=C/CCCCCCCC(=O)OCC(COC(=O)CCCCCCC/C=C/C1C=CC(CCCC)C(C(=O)O)C1C(=O)O)OC(=O)CCCCCCC/C=C/C=C/C=C/CCCC` (stereo not given) (tested in a mixture with another compound), the TGI came to 38.3 µM in assay [1]; 29.5 µM in assay [2]; 18 µM in [3]; 35.3 µM in [9]; 44.2 µM in [5]; 44.3 µM in assay [6]. The same molecule returned a TGI in [8] of 34.2 µM.
Regarding `CN(C)C=Nc1nc(=O)n(C2CCC(CO)O2)cc1F` (stereo not given), the TGI in assay [1], in [2], in assay [3], in assay [4], in assay [9] and in [5] was > 100 µM in each case. In addition, the TGI in assay [6], in assay [7] and in assay [8] was > 100 µM throughout.
As to `COc1ccc(/C=C/COC(C)=O)cc1OC`, the TGI in assay [1], in assay [2], in [3], in assay [4], in assay [9] and in [5] was > 100 µM in each case. Further, the TGI in [6] and in assay [7] was > 100 µM throughout.
As to `S=P1(Oc2ccccc2)NNP2(=NP(N3CC3)(N3CC3)=NP(N3CC3)(N3CC3)=N2)NN1` (stereo not given), the TGI in assay [1], in assay [2], in assay [3], in assay [4], in assay [9] and in [5] was > 100 µM in each case. Further, the TGI in assay [6], in [7] and in assay [8] was > 100 µM throughout.
Consider `COc1ccc2c(c1)[n+]([O-])c(C(N)=O)c(N)[n+]2[O-]`, for which the TGI in assay [1] is 98.5 µM; in [2] it was > 100 µM; in assay [3], > 100 µM; in assay [4], 31.1 µM; in assay [9], > 100 µM; in assay [5], > 100 µM. Besides, the TGI in [6] and in assay [7] was > 100 µM in each case.
For the molecule `N#CCCC[Si]12OCCN(CCO1)CCO2`, the TGI in [1], in assay [2], in assay [3], in assay [4], in assay [9] and in [5] was > 100 µM throughout. Further, the TGI in assay [6], in [7] and in assay [8] was > 100 µM in each case.
On to `CC(=O)[O-].CC(=O)[O-].O=C(N/N=C/c1cc(Cl)cc(Cl)c1O)c1ccncc1.[Cu+2]`, for which the TGI in assay [1], in [2], in assay [3], in assay [4], in assay [9] and in [5] was > 100 µM each time. For the same molecule, the TGI in assay [6], in assay [7] and in assay [8] was > 100 µM throughout. Also, the GI50 in assay [2] is > 100 µM.
For `Cc1ccc(S(=O)(=O)N2CCC2c2ccccc2)cc1` (stereo not given), the TGI in assay [1], in assay [2], in assay [3], in assay [4], in assay [9] and in [5] was > 100 µM in each case. For the same molecule, the TGI in assay [6], in assay [7] and in [8] was > 100 µM each time.
On to `N#CC(C(=O)CCC(=O)Nc1ccc(Cl)c(Cl)c1)c1ccccc1` (stereo not given), for which the TGI in [1], in assay [2], in assay [3], in assay [9], in [5] and in assay [6] was > 100 µM throughout. The TGI in [7] is > 100 µM.
Take `O=C1C(C(Nc2ccccc2)c2ccccc2)=C([O-])c2ccccc21.O=C1C(C(Nc2ccccc2)c2ccccc2)=C([O-])c2ccccc21.[Cu+2]` (stereo not given): the GI50 was 42.6 µM in assay [3]; 23.7 µM in assay [4]; 33.1 µM in [9]; 28.6 µM in assay [5]; 41.5 µM in [6]; 22.5 µM in assay [7]. The TGI in assay [3] was > 100 µM; in assay [4], 73.6 µM; in assay [9], > 100 µM; in [5], > 100 µM; in [6], > 100 µM; in assay [7], 65.4 µM.
Take `O=S1C(=c2ccc(=C3Sc4ccccc4S3)cc2)Sc2ccccc21` (stereo not given): the TGI is > 100 µM in [1]; 50.6 µM in assay [2]; > 100 µM in [3]; > 100 µM in [4]; 49.2 µM in assay [9]; > 100 µM in [5]. For the same molecule, the figures for the TGI in assay [6], in assay [7] and in assay [8] were 29.3 µM, 28.2 µM and > 100 µM, respectively.
With `O=C(/C=C/c1c(O)ccc2ccccc12)c1ccc([N+](=O)[O-])cc1`, the TGI in [1] is 39.8 µM; in assay [2], > 100 µM; in assay [3], > 57.6 µM; in assay [4] it was 31.2 µM; in [9] it was > 100 µM; in [5], > 100 µM. Further, the TGI in assay [6] is 39.7 µM; in assay [7], > 100 µM; in assay [8] it was > 75.8 µM.
With `O=c1[nH]c(-c2ccccc2)nc2cc(Cl)ccc12`, the TGI in assay [1], in [2], in assay [3], in assay [9], in assay [5] and in [7] was > 100 µM throughout. Moreover, the TGI in [8] is > 100 µM.
Consider `COc1c(CC(C)=O)ccc2c1C(=O)c1ccc(C=O)c(OC(C)=O)c1C2=O`, for which the TGI in assay [1] is 35.3 µM; in [2] it was 30.3 µM; in assay [3], 33.7 µM; in assay [4], 8.39 µM; in assay [9], 37.9 µM; in assay [5] it was > 100 µM. For the same molecule, the TGI came to 27.6 µM in assay [6], 36.8 µM in [7] and 55.9 µM in assay [8].
Consider `CCOC(=O)/C(=C/c1ccc(OC)cc1)N(CC)CC`, for which the TGI in [1], in assay [2], in assay [3], in [4], in assay [9] and in [5] was > 100 µM each time. The TGI in assay [6], in assay [7] and in assay [8] was > 100 µM each time.
In the case of `CN(C)C(=S)/N=c1\ssc(=S)n1C1CCCCC1`, the TGI in assay [2] was > 100 µM; in assay [3] it was 28.4 µM; in [4] it was 37.4 µM; in assay [9], > 100 µM; in assay [5], 52.6 µM; in [6], > 100 µM. For the same molecule, the TGI came to 37.9 µM in assay [7] and 46.1 µM in assay [8].
In the case of `CN(C)CC1CCCC/C1=N/O` (stereo not given), the TGI in assay [1], in [2], in assay [3], in assay [4], in [9] and in assay [5] was > 100 µM in each case. Also, the TGI in [6], in assay [7] and in [8] was > 100 µM throughout.
`O=C(Nc1nc(=S)[nH][nH]1)C(=O)C(C(=O)c1ccc2ccccc2c1)C1OC(=O)c2ccccc21` (stereo not given): the TGI in assay [1] was 67 µM; in assay [2], 53.2 µM; in assay [3], > 100 µM; in [4], 65.3 µM; in [9], > 100 µM; in assay [5] it was 82.9 µM. Moreover, the results for the TGI in assay [6], in assay [7] and in [8] were 47.2 µM, > 100 µM and 80.7 µM, respectively.
As to `O=C(O)CSc1n[nH]c(-c2ccccc2O)n1`, the TGI in assay [1], in [2], in assay [3], in [9], in assay [5] and in assay [6] was > 100 µM in each case. The TGI in assay [7] and in assay [8] was > 100 µM throughout.
`O=c1c2cccnc2ncn1CCN1CCCCC1`: the TGI in [1], in [2], in assay [3], in assay [4], in assay [9] and in [5] was > 100 µM throughout. Besides, the TGI in assay [6], in assay [7] and in [8] was > 100 µM in each case.
As to `CCOC(=O)C1Sc2ccccc2N=C1C` (stereo not given), the TGI in [1], in assay [2], in assay [3], in [4], in assay [9] and in assay [5] was > 100 µM each time. In addition, the TGI in assay [6] and in assay [7] was > 100 µM each time.
